Results taken from publication PMC11207052, “Synthesis, Biological, and Computational Evaluations of Conformationally Restricted NAD-Mimics as Discriminant Inhibitors of Human NMN-Adenylyltransferase Isozymes” (Pharmaceuticals, 2024).
Structures can show the parent of a compound that is named as a salt. Where two headings read alike, the source gives them in different places. Values belong to the compound of their own block, whether it stands above or below them.

Tests used:
hNMNAT-1 = target: T1, hNMNAT-1 (Homo sapiens, UniProt Q9HAN9); test: NMN adenylyltransferase activity assay (pyrophosphatase-coupled, malachite green), hNMNAT-1; assay type: biochemical; design: key to mode of inhibition (in brackets) towards NMN, hNMNAT-1 / mode of inhibition (in brackets) towards ATP, hNMNAT-1: M, mixed inhibition; C, competitive; U, uncompetitive; conditions: for Ki: inhibitor 30 and 90 µM, ± std. error, αKi in the case of uncompetitive inhibition
T1 construct: made in house
Text: (§1) The reaction catalyzed by NMN adenylyltransferase can be represented as NMN + ATP (NAD + PPi). To avoid interference of methyl NAD analogues with NAD-based detection assays, we used a “pyrophosphate-dependent” coupled assay that couples NMNAT activity with inorganic pyrophosphatase (PPase) that hydrolyzes PPi into two molecules of inorganic phosphate (Pi). Phosphate was quantified using a malachite green dye as described. Enzyme purification procedures followed previous reports. The reactions were carried out using a 96-well microplate assay format at room temperature in a total volume of 50 µL per well. The reaction mixtures contained 100 mM Hepes, pH 7.5, 10 mM MgCl2, 0.1 mg/mL bovine serum albumin, and an excess of 4 U/mL of inorganic pyrophosphatase. The hNMNAT concentration, ranging from 3 to 15 nM, was adjusted in different tests to ensure initial velocity conditions (5–10% substrate depletion) while retaining a linear response. An amount of 100 µL of the malachite green reagent was added to each well to stop the reactions. Following a 20–30 min incubation period, the molybdate in the reagent formed a complex with the free phosphate, resulting in full-color development. The phosphate concentration was then quantified by measuring the absorbance at 620 nm using a microplate reader (Biotek Synergy HT) and interpolating these values against a pre-established standard curve. Absorbance from control reactions performed in the absence of hNMNAT were subtracted from absorbances of the respective reactions with the enzyme to account for background hydrolysis. Details for substrate and inhibitor concentration range are given below and in the legend of Figure 2. Assays with the inhibitors were carried out in triplicate, and the percentage of inhibition at each concentration was calculated for the initial screening at 0.5 mM.
(§2) Values for inhibition constant Ki and α were determined by fitting the data to the rate equation for general mixed model inhibition: V = VmaxS/[Km(1 + I/Ki) + S(1 + I/[…])] using GraphPad Prism software version 7.05, where Vmax and Km are the classic Michaelis–Menten parameters, Ki is the equilibrium dissociation constant for the enzyme-inhibitor complex, S and I are the substrate and the inhibitor concentration, respectively. This model includes competitive, uncompetitive, and noncompetitive inhibition as special cases that the α values can diagnose. Further mechanistic insights into the mode of inhibition were drawn by graphical inspection of the Lineaweaver–Burk plots.

hNMNAT-2 = target: T2, hNMNAT-2 (Homo sapiens, UniProt Q9BZQ4); test: NMN adenylyltransferase activity assay (pyrophosphatase-coupled, malachite green), hNMNAT-2; assay type: biochemical; design: key to mode of inhibition (in brackets) towards NMN, hNMNAT-2 / mode of inhibition (in brackets) towards ATP, hNMNAT-2: M, mixed inhibition; C, competitive; U, uncompetitive; conditions: for enzyme inhibition in the initial screening, hNMNAT-2: fixed concentration of 0.5 mM inhibitor; for Ki: inhibitor 30 and 90 µM, ± std. error, αKi in the case of uncompetitive inhibition
T2 construct: made in house
Text: as §1, §2

hNMNAT-3 [1] = target: T3, hNMNAT-3 (Homo sapiens, UniProt Q96T66); test: NMN adenylyltransferase activity assay (pyrophosphatase-coupled, malachite green), hNMNAT-3; assay type: biochemical; design: key to mode of inhibition (in brackets) towards NMN, hNMNAT-3 / mode of inhibition (in brackets) towards ATP, hNMNAT-3: M, mixed inhibition; C, competitive; U, uncompetitive; conditions: for enzyme inhibition in the initial screening, hNMNAT-3: fixed concentration of 0.5 mM inhibitor; for Ki: inhibitor 30 and 90 µM, ± std. error, αKi in the case of uncompetitive inhibition
T3 construct: made in house
Text: as §1, §2

hNMNAT-3 [2] = target: T3, hNMNAT-3; design: method as in PMID 16118205, PMID 18336280; conditions: most sensitive isoform; cited from earlier work
[3] = fixed concentration of 0.5 mM inhibitor
[4] = ATP varied, NMN fixed (0.5 mM), read-out: Ki towards ATP, hNMNAT-2
[5] = NMN varied, ATP fixed (0.5 mM), read-out: Ki towards NMN, hNMNAT-2
[6] = steady-state kinetic analysis, versus ATP

T2 sequence (Q9BZQ4 whole entry): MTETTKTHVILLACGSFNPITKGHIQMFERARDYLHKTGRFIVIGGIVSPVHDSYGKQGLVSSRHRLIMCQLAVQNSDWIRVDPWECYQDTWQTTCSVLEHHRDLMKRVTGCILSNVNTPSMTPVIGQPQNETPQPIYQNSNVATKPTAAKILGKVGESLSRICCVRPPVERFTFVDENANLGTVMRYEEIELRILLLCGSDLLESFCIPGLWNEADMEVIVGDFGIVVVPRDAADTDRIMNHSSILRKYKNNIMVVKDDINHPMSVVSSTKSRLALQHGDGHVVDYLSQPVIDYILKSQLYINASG
T1 sequence (Q9HAN9 whole entry): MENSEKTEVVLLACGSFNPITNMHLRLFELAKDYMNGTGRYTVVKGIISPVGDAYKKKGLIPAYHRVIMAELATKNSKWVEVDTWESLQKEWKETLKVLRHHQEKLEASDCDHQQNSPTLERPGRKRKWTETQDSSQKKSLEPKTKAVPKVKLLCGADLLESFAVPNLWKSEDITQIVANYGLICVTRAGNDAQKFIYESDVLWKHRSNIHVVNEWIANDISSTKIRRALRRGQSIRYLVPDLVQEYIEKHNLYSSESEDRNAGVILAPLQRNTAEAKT
T3 sequence (Q96T66 whole entry): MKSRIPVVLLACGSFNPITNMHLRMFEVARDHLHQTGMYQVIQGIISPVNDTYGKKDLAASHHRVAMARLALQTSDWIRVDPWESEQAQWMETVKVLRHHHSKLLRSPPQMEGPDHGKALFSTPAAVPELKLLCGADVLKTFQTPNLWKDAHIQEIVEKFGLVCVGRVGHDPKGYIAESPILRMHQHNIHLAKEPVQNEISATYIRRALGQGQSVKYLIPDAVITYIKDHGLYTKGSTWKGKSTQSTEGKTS

- enzyme inhibition in the initial screening, hNMNAT-1 (hNMNAT-1; [3]): absence of inhibition
- enzyme inhibition in the initial screening, hNMNAT-2 (hNMNAT-2): absence of inhibition
- enzyme inhibition in the initial screening, hNMNAT-3 (hNMNAT-3 [1]): absence of inhibition
SMILES: C[C@@]1(O)[C@H](O)[C@@H](COP(=O)(O)O)O[C@H]1n1cnc2c(N)ncnc21 [2′-MeAMP (5), 9H-(2′-C-Methyl-β-D-ribofuranosyl)adenine-5′-monophosphate Tributyl Ammonium Salt]

- inhibition at 500 µM (hNMNAT-1; fixed concentration of 0.5 mM inhibitor, read-out: enzyme inhibition in the initial screening, hNMNAT-1): < 50%
- mode of inhibition (in brackets) towards ATP, hNMNAT-2 (hNMNAT-2; ATP varied): M
- Ki (hNMNAT-2; [4]): 21 ± 3 µM
- mode of inhibition (in brackets) towards NMN, hNMNAT-2 (hNMNAT-2; NMN varied): M
- Ki (hNMNAT-2; [5]): 15 ± 3 µM
SMILES: C[C@@]1(O)[C@H](O)[C@@H](COP(=O)([O-])OP(=O)(O)OC[C@H]2O[C@@H]([n+]3cccc(C(N)=O)c3)[C@H](O)[C@@H]2O)O[C@H]1n1cnc2c(N)ncnc21 [2′-MeNAD (1), P^1-[5′-(2′-C-Methyl-β-D-ribofuranosyl)adenine]-P^2-[5′-(β-D-ribofuranosyl)nicotinamide] Pyrophosphate]
- mode of inhibition (in words), hNMNAT-2 (hNMNAT-2; steady-state kinetic analysis): mixed-type inhibition with a strong non-competitive character

- mode of inhibition (in brackets) towards ATP, hNMNAT-1 (hNMNAT-1; ATP varied): U
- Ki (hNMNAT-1; ATP varied, NMN fixed (0.5 mM), read-out: Ki towards ATP, hNMNAT-1): 82 ± 14 µM
- mode of inhibition (in brackets) towards NMN, hNMNAT-1 (hNMNAT-1; NMN varied): C
- Ki (hNMNAT-1; NMN varied, ATP fixed (0.5 mM), read-out: Ki towards NMN, hNMNAT-1): 168 ± 19 µM
- mode of inhibition versus ATP (in words), hNMNAT-1 (hNMNAT-1; [6]): uncompetitive character
- mode of inhibition (in brackets) towards ATP, hNMNAT-2 (hNMNAT-2; ATP varied): U
- Ki (hNMNAT-2; [4]): 41 ± 14 µM
- mode of inhibition (in brackets) towards NMN, hNMNAT-2 (hNMNAT-2; NMN varied): M
- Ki (hNMNAT-2; [5]): 60 ± 18 µM
- mode of inhibition versus ATP (in words), hNMNAT-2 (hNMNAT-2; [6]): uncompetitive character
- mode of inhibition (in brackets) towards ATP, hNMNAT-3 (hNMNAT-3 [1]; ATP varied): C
- Ki (hNMNAT-3 [1]; ATP varied, NMN fixed (0.5 mM), read-out: Ki towards ATP, hNMNAT-3): 223 ± 22 µM
- mode of inhibition (in brackets) towards NMN, hNMNAT-3 (hNMNAT-3 [1]; NMN varied): C
- Ki (hNMNAT-3 [1]; NMN varied, ATP fixed (0.5 mM), read-out: Ki towards NMN, hNMNAT-3): 224 ± 17 µM
SMILES: C[C@@]1(O)[C@H](O)[C@@H](COP(=O)([O-])OP(=O)(O)OC[C@H]2O[C@@H]([n+]3cccc(C(=O)O)c3)[C@H](O)[C@@H]2O)O[C@H]1n1cnc2c(N)ncnc21 [2′-MeNaAD (3), P^1-[5′-(2′-C-Methyl-β-D-ribofuranosyl)adenine]-P^2-[5′-(β-D-ribofuranosyl)nicotinic acid] Pyrophospshate]

- enzyme inhibition in the initial screening, hNMNAT-1 (hNMNAT-1; [3]): absence of inhibition
- enzyme inhibition in the initial screening, hNMNAT-2 (hNMNAT-2): absence of inhibition
- enzyme inhibition in the initial screening, hNMNAT-3 (hNMNAT-3 [1]): absence of inhibition
SMILES: C[C@@]1(O)[C@@H](COP(=O)(O)O)O[C@@H](n2cnc3c(N)ncnc32)[C@@H]1O [3′-MeAMP (6), 9H-(3′-C-Methyl-β-D-ribofuranosyl)adenine-5′-monophosphate Tributyl Ammonium Salt]

- enzyme inhibition in the initial screening, hNMNAT-1 (hNMNAT-1; [3]): absence of inhibition
- enzyme inhibition in the initial screening, hNMNAT-2 (hNMNAT-2): absence of inhibition
- enzyme inhibition in the initial screening, hNMNAT-3 (hNMNAT-3 [1]): absence of inhibition
SMILES: C[C@@]1(O)[C@H](O)[C@@H](CO)O[C@H]1n1cnc2c(N)ncnc21 [Compound 11, 2′-MeAdo]

- enzyme inhibition in the initial screening, hNMNAT-1 (hNMNAT-1; [3]): absence of inhibition
- enzyme inhibition in the initial screening, hNMNAT-2 (hNMNAT-2): absence of inhibition
- enzyme inhibition in the initial screening, hNMNAT-3 (hNMNAT-3 [1]): absence of inhibition
SMILES: C[C@@]1(O)[C@@H](CO)O[C@@H](n2cnc3c(N)ncnc32)[C@@H]1O [Compound 12, 3′-MeAdo]

SMILES: O=C(OC[C@H]1O[C@@H](OC(=O)c2cc(O)c(O)c(OC(=O)c3cc(O)c(O)c(O)c3)c2)[C@H](OC(=O)c2cc(O)c(O)c(OC(=O)c3cc(O)c(O)c(O)c3)c2)[C@@H](OC(=O)c2cc(O)c(O)c(OC(=O)c3cc(O)c(O)c(O)c3)c2)[C@@H]1OC(=O)c1cc(O)c(O)c(OC(=O)c2cc(O)c(O)c(O)c2)c1)c1cc(O)c(O)c(OC(=O)c2cc(O)c(O)c(O)c2)c1 [Gallotannin]
- IC50 (hNMNAT-3 [2]): 2 µM
